Measured values: ChEMBL document CHEMBL1201862, “PubChem BioAssay data set” (2004)
The source made the active and inactive calls.

Legend:
[1] = target: T1, Estrogen receptor (Homo sapiens, UniProt P03372); experiment: ERα coactivator recruitment enhancers – biochemical, TR-FRET, ERα LBD, dose response (AID 737)
T1 sequence (P03372 whole entry): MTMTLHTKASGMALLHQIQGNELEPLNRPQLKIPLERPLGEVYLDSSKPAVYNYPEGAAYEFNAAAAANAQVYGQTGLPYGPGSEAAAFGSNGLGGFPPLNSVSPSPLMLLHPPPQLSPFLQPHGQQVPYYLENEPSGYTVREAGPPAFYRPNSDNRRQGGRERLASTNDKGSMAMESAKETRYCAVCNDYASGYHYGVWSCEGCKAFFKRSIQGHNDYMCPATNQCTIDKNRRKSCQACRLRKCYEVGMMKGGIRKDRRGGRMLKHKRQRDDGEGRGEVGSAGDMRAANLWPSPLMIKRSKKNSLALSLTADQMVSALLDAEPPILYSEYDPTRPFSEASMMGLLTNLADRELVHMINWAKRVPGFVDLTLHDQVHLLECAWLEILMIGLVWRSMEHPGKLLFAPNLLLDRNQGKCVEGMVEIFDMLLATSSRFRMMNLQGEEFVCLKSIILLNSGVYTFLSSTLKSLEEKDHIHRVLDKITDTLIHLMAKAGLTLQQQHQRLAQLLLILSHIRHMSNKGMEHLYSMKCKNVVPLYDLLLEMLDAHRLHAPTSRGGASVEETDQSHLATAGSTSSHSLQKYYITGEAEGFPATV

[2] = antiviral protection against BTV-induced cell death – arbovirus, BSR cells, confirmation (AID 1250); format: functional;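 further: protection from viral cytopathic effect measured as cell viability by ATP luminescence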
[3] = target: T2, Calpain-2 catalytic subunit (Sus scrofa, UniProt P43367); experiment: m-calpain protease blockers, concentration series – biochemical, fluorogenic peptide substrate, dose response (AID 1420); format: functional
T2 sequence (P43367 whole entry): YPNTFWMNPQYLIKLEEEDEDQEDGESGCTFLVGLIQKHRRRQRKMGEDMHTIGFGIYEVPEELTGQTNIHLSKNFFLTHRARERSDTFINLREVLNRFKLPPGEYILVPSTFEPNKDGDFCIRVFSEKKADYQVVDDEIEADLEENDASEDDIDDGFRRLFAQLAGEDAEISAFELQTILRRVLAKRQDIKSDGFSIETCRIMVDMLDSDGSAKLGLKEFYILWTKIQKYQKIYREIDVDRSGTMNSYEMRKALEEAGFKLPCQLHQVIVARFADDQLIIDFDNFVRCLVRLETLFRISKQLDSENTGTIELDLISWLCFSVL

[4] = target: T3, Replicative DNA helicase DnaB (Mycobacterium tuberculosis, UniProt P9WMR3); experiment: DnaB intein splicing inhibitors, dose response, biochemical, cell-free fluorescence (AID 449749); format: functional
T3 sequence (P9WMR3 whole entry): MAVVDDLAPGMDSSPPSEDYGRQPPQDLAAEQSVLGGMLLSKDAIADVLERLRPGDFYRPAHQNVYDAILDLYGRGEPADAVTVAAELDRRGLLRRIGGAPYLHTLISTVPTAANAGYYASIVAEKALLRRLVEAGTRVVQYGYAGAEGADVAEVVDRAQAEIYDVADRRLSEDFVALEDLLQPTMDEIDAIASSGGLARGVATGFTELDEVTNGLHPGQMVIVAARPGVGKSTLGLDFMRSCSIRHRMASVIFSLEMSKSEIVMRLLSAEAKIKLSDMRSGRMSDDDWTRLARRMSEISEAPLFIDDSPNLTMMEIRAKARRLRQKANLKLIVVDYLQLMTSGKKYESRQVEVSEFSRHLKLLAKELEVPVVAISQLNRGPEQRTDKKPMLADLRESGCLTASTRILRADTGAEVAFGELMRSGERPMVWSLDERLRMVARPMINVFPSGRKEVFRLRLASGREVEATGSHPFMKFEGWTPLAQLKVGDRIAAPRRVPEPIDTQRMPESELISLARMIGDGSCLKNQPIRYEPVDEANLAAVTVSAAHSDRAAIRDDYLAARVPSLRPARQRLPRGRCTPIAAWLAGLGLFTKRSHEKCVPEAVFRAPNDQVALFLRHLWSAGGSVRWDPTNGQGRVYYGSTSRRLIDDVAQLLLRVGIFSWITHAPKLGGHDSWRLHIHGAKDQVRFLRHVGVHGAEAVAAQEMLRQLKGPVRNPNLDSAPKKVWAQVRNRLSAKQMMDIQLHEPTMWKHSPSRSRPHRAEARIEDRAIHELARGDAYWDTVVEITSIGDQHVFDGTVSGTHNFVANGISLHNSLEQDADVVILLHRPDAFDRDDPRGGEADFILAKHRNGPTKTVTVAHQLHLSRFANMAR

[5] = target: Beta Lactamase (Pseudomonas aeruginosa, UniProt Q932Y6); experiment: BLA reporter interference, concentration series – BLA reporter cells, FRET fluorescence, artefact control for TLR9-MyD88 binding inhibitor project, dose response (AID 588341); format: cell-based;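 further: cell based assay in CHO-K1 cells stably expressing beta-lactamase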
[6] = system: HeLa; experiment: Cytotoxicity counterscreen assay for transcriptional activators of heat shock protein 70 (Hsp70). [Related pubchem assays: 1203, 1252 ]; format: functional; settings: Homo sapiens;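 further: cells exposed to compound for 16 hours before readout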
[7] = cells; format: functional
[8] = target: T4, Protein RecA (Mycobacterium tuberculosis, UniProt P9WHJ3); experiment: Fluorescence Cell-Free Homogeneous Dose Retest to Identify Inhibitors of RecA-Intein Splicing Activity. [Related pubchem assays (depositor defined):AID2097, AID2223, AID489010, AID492950]; format: functional
T4 sequence (P9WHJ3 whole entry): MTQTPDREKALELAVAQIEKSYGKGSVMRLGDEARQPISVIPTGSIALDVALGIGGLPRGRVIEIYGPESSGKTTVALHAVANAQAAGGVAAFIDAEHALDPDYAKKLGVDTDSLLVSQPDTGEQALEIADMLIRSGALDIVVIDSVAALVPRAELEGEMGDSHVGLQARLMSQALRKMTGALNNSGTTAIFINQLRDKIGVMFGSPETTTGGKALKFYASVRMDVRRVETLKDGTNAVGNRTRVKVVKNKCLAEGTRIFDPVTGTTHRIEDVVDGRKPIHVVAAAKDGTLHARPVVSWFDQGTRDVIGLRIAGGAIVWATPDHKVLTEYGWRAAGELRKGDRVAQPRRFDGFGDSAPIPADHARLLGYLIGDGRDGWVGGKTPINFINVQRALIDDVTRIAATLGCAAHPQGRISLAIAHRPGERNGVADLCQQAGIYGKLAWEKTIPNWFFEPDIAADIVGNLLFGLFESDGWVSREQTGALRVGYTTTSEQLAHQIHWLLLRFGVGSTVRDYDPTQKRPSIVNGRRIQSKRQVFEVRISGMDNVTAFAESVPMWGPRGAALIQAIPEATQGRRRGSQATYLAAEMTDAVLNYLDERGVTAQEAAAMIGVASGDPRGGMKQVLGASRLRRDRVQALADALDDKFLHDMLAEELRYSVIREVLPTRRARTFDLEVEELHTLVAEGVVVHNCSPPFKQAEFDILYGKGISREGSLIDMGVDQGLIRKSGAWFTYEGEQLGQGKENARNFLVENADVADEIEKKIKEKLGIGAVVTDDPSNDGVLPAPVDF

[9] = target: Sphingosine 1-phosphate receptor 1 (Homo sapiens, UniProt P21453); format: functional;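 further: Tango beta-arrestin reporter U2OS cells stimulated with S1P near its EC80; inhibitor potency meaning antagonism of receptor activation by the natural agonist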
[10] = target: Heat shock protein HSP 90-alpha (Homo sapiens, UniProt P07900); format: functional, organism-based
[11] = Trypanosoma cruzi growth suppression in host cells – NIH3T3 host cells, beta-gal luminescence, confirmation (AID 2044); format: functional, cell-based;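 further: intracellular parasites grown in NIH/3T3 mouse fibroblasts as host cells; luminescent beta-galactosidase reporter signal from transgenic T. cruzi replicating inside host cells; inhibitors lower the luminescence signal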
[12] = NIH3T3 cell viability loss – ATP luminescence, mouse fibroblasts, counter-screen, dose response (AID 2010); format: functional, cell-based;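 further: cells exposed to compound for about 90 hours before reading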
[13] = system: CHO; experiment: CHO cell viability loss, potency – luminescence, cytotoxicity control for TLR9-MyD88 binding inhibitor project, dose response (AID 588339); format: functional, cell-based, hamster; settings: Cricetulus griseus;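 further: CHO cells stably coexpressing TLR9 and MyD88 fusions from primary screen; compound exposure lasted 48 hours before viability readout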
[14] = HepG2 cell cytotoxicity, dose response, cytotoxicity control for non-replicating M. tuberculosis project (AID 489018); format: functional; settings: Mycobacterium tuberculosis
[15] = target: T5, Sphingosine 1-phosphate receptor 4 (Homo sapiens, UniProt O95977); experiment: Fluorescence dose response cell-based high throughput screening assay for antagonists of the Sphingosine 1-Phosphate Receptor 4 (S1P4). [Related pubchem assays: 1524 (Confirmation in triplicates.), 1510 (Primary screen.)]; format: functional
T5 sequence (O95977 whole entry): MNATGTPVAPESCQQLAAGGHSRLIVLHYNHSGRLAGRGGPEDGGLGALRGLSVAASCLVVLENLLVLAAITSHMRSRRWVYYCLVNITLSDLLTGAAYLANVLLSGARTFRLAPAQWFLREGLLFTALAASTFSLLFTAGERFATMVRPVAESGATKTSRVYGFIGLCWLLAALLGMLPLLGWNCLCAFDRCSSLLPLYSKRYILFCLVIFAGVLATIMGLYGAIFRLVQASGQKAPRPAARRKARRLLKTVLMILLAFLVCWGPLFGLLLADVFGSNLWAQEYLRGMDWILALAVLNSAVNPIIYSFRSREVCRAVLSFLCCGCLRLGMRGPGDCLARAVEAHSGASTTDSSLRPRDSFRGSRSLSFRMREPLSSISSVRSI

[16] = Vero E6 cell cytotoxicity, dose response, cytotoxicity control for non-replicating M. tuberculosis project, secondary assay (AID 492998); format: functional, VeroE6; settings: Vero C1008
[17] = THP-1 cell cytotoxicity, dose response, cytotoxicity control for non-replicating M. tuberculosis project (AID 489025); format: functional
[18] = system: INS1; experiment: INS-1E survival protection against cytokine death – cell-based, luminescence, retest, dose response (AID 449756); format: functional; settings: Rattus norvegicus;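 further: cell death triggered by IL-1 beta plus TNF-alpha plus IFN-gamma mixture; protective hits raise ATP signal compared with cytokine alone wells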

Chain of Sphingosine 1-phosphate receptor 1 (P21453 whole entry): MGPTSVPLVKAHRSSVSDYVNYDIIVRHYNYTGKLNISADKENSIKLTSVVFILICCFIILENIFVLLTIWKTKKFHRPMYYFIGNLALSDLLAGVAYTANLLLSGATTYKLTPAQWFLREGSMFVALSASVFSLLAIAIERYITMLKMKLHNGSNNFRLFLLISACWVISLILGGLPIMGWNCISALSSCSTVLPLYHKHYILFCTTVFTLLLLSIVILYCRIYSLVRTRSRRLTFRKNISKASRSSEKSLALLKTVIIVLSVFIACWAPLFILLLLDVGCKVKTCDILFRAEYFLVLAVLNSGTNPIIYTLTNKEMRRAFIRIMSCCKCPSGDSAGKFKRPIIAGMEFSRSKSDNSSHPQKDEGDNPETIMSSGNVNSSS
Chain of Beta Lactamase (Q932Y6 whole entry): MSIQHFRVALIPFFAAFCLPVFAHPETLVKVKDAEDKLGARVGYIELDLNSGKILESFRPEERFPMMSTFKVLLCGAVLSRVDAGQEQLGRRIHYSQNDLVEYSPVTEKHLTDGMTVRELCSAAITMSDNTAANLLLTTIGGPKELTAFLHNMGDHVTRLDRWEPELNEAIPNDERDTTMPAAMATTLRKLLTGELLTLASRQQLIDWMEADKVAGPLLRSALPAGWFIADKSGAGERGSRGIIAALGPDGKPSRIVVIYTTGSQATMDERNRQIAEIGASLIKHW

In the case of `Cc1cc(C(=O)CSc2nnc(-c3ccccc3F)o2)c(C)n1Cc1cccs1`, the EC50 [1] is reported as 6.97 µM (active).
In the case of `COc1ccc(C(=O)NCC(C)(C)SCc2c(C)cc(C)cc2C)cc1`, the IC50 [2] is reported as 24.1 µM (active) and the IC50 [3] is reported as > 50 µM (not active).
For `O=C(OCn1ncc(Br)c(Br)c1=O)c1ccccc1Cl`, the AC50 [4] was 2 µM (active), the IC50 [5] was > 49.8 µM (inactive) and the CC50 [6] was > 1.22 µM (not active). The IC50 [7] was 3.24 µM (active), the EC50 [8] was 0.472 µM (active) and the IC50 [9] was 15.3 µM (not active). The AC50 [10] was 8.37 µM (active), the EC50 [11] was 2.03 µM (active) and the EC50 [12] was 1.88 µM (active). The IC50 [13] was 1.46 µM (active), the CC50 [14] was 17.8 µM (active) and the IC50 [15] was 1.75 µM (active). The CC50 [16] was 5.45 µM (active), the CC50 [17] was 5.77 µM (active) and the AC50 [18] was 4.76 µM (active).
